*1 amine or outer side, *2 acyl side, *3 side chain or, on linkers, in order; H or OH if unused. Where a SMILES comes first, the peptide text is derived from it. Side-chain parts run from the residue outwards. The star is where a group is joined. C18 diacid = O=C(O)CCCCCCCCCCCCCCCCC(=O)*; γGlu = O=C(O)[C@H](CCC(=O)[*:2])N[*:1]; Isovaleryl = CC(C)CC(=O)*; AEEA = NCCOCCOCC(=O)O

The term Ki denotes the dissociation constant of the complex between target and ligand, obtained from inhibition or displacement.

The target of the test is T1, Human Neuropeptide Y2 Receptor (Homo sapiens, UniProt P49146).
T1 construct: purchased CHEMICON HTS066M
T1 sequence (P49146 1-381): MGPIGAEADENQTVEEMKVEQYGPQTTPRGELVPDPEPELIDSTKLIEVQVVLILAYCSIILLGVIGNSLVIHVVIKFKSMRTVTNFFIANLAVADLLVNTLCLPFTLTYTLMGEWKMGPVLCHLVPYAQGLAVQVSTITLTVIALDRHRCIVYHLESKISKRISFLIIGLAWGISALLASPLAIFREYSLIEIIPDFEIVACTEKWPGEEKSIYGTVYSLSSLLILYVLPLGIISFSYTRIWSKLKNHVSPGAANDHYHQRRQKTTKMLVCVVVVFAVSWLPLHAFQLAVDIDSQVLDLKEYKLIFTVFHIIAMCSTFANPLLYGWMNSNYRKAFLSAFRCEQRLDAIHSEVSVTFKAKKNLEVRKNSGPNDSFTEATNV
As to the kind of experiment: Radioligand binding competition assay (RLB). The note with it: Table 3; human 125I-PYY (1-36) 0.02 nM, Y2 receptor membranes; read-out: Ki. The essentials: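 Competition binding on human Y2 receptor membranes, 0.5 μg protein/well, in 50 mM HEPES, 5 mM MgCl2, 1 mM CaCl2, pH 7.4, 0.2% ovalbumin; peptides diluted from 1 mM DMSO stocks.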
On to `CC(C)CC(=O)N[C@@H](C)C(=O)N1CCC[C@H]1C(=O)N[C@@H](C)C(=O)N[C@@H](CCCCNC(=O)COCCOCCNC(=O)COCCOCCNC(=O)CC[C@H](NC(=O)CCCCCCCCCCCCCCCCC(=O)O)C(=O)O)C(=O)N1CCC[C@H]1C(=O)N[C@@H](CCC(=O)O)C(=O)N[C@@H](CCC(=O)O)C(=O)N[C@@H](CC(=O)O)C(=O)N[C@@H](C)C(=O)N[C@@H](CO)C(=O)N1CCC[C@H]1C(=O)N[C@@H](CCC(=O)O)C(=O)N[C@@H](CCC(=O)O)C(=O)N[C@@H](CC(C)C)C(=O)N[C@@H](CCC(=O)O)C(=O)N[C@@H](CCC(N)=O)C(=O)N[C@@H](Cc1ccc(O)cc1)C(=O)N[C@@H](Cc1ccc(O)cc1)C(=O)N[C@H](C(=O)N[C@@H](CO)C(=O)N[C@@H](CC(C)C)C(=O)N[C@@H](CCCNC(=N)N)C(=O)N[C@@H](Cc1c[nH]cn1)C(=O)N[C@@H](Cc1ccc(O)cc1)C(=O)N[C@@H](Cc1ccc(O)cc1)C(=O)N[C@@H](CC(N)=O)C(=O)N[C@@H](Cc1c[nH]c2ccccc12)C(=O)N[C@@H](CC(C)C)C(=O)N[C@H](C(=O)N[C@@H](CCCNC(=N)N)C(=O)N[C@@H](CCC(N)=O)C(=O)N[C@@H](CCCNC(=N)N)C(=O)N[C@@H](Cc1ccc(O)cc1)C(N)=O)[C@@H](C)O)C(C)C` [Compound 216, N{alpha-4}-(3-methylbutanoyl)-N{epsilon-7}-[2-(2-{2-[2-(2-{2-[(4S)-4-carboxy-4-(17-carboxyheptadecanamido)butanamido]ethoxy}ethoxy)acetamido]ethoxy}ethoxy)acetamido]-[4A,6A,7K,9E,18E,19Q,22V,28Y,30W,31L]hPYY (4-36)] (Isovaleryl-APAK([AEEA-AEEA-γGlu-C18 diacid])PEEDASPEELEQYYVSLRHYYNWLTRQRY-NH2), for which the Ki was found to be 0.93 nM.
The figure for `CC[C@H](C)[C@H](NC(=O)[C@H](CCC(=O)O)NC(=O)[C@H](C)NC(=O)[C@@H]1CCCN1C(=O)[C@H](CO)NC(=O)[C@H](C)NC(=O)[C@H](CC(=O)O)NC(=O)[C@H](CCC(=O)O)NC(=O)[C@H](CCC(=O)O)NC(=O)[C@@H]1CCCN1C(=O)[C@H](CCCCNC(=O)COCCOCCNC(=O)COCCOCCNC(=O)CC[C@H](NC(=O)CCCCCCCCCCCCCCCCC(=O)O)C(=O)O)NC(=O)[C@H](CCC(=O)O)NC(=O)[C@@H]1CCCN1C(=O)[C@H](C)NC(=O)CC(C)C)C(=O)N[C@@H](CCC(N)=O)C(=O)N[C@@H](CCCNC(=N)N)C(=O)N[C@@H](Cc1ccc(O)cc1)C(=O)N[C@@H](Cc1ccc(O)cc1)C(=O)N[C@H](C(=O)N[C@@H](CO)C(=O)N[C@@H](CC(C)C)C(=O)N[C@@H](CCCNC(=N)N)C(=O)N[C@@H](Cc1c[nH]cn1)C(=O)N[C@@H](Cc1ccc(O)cc1)C(=O)N[C@@H](Cc1ccc(O)cc1)C(=O)N[C@@H](CC(N)=O)C(=O)N[C@@H](Cc1c[nH]c2ccccc12)C(=O)N[C@@H](CC(C)C)C(=O)N[C@H](C(=O)N[C@@H](CCCNC(=N)N)C(=O)N[C@@H](CCC(N)=O)C(=O)N[C@@H](CCCNC(=N)N)C(=O)N[C@@H](Cc1ccc(O)cc1)C(N)=O)[C@@H](C)O)C(C)C` [Compound 95, N{alpha-4}-(3-methylbutanoyl)-N{epsilon-7}-[2-(2-{2-[2-(2-{2-[(4S)-4-carboxy-4-(17-carboxyheptadecanamido)butanamido]ethoxy}ethoxy)acetamido]ethoxy}ethoxy)acetamido]-[4A,7K,9E,15A,17I,18Q,22V,28Y,30W,31L]hPYY (4-36)] is 0.66 nM; for `CC(C)CC(=O)N[C@@H](C)C(=O)N1CCC[C@H]1C(=O)N[C@@H](CCC(=O)O)C(=O)N[C@@H](CCCCNC(=O)COCCOCCNC(=O)COCCOCCNC(=O)CC[C@H](NC(=O)CCCCCCCCCCCCCCCCC(=O)O)C(=O)O)C(=O)N1CCC[C@H]1C(=O)N[C@@H](CCC(=O)O)C(=O)N[C@@H](CCC(=O)O)C(=O)N[C@@H](CC(=O)O)C(=O)N[C@@H](C)C(=O)N[C@@H](CO)C(=O)N1CCC[C@H]1C(=O)N[C@@H](CCC(=O)O)C(=O)N[C@@H](CCC(=O)O)C(=O)N[C@H](C(=O)N[C@@H](CCC(N)=O)C(=O)N[C@@H](CCCNC(=N)N)C(=O)N[C@@H](Cc1ccc(O)cc1)C(=O)N[C@@H](Cc1ccc(O)cc1)C(=O)N[C@H](C(=O)N[C@@H](CCC(=O)O)C(=O)N[C@@H](CC(C)C)C(=O)N[C@@H](CCCNC(=N)N)C(=O)N[C@@H](Cc1c[nH]cn1)C(=O)N[C@@H](Cc1ccc(O)cc1)C(=O)N[C@@H](Cc1ccc(O)cc1)C(=O)N[C@@H](CC(N)=O)C(=O)N[C@@H](Cc1c[nH]c2ccccc12)C(=O)N[C@@H](CC(C)C)C(=O)N[C@H](C(=O)N[C@@H](CCCNC(=N)N)C(=O)N[C@@H](CCC(N)=O)C(=O)N[C@@H](CCCNC(=N)N)C(=O)N[C@@H](Cc1ccc(O)cc1)C(N)=O)[C@@H](C)O)C(C)C)[C@@H](C)O` [Compound 94, N{alpha-4}-(3-methylbutanoyl)-N{epsilon-7}-[2-(2-{2-[2-(2-{2-[(4S)-4-carboxy-4-(17-carboxyheptadecanamido)butanamido]ethoxy}ethoxy)acetamido]ethoxy}ethoxy)acetamido]-[4A,7K,9E,17T,18Q,22V,23E,28Y,30W,31L]hPYY (4-36)] it is 2.07 nM; for `CC[C@H](C)[C@H](NC(=O)[C@H](CCC(=O)O)NC(=O)[C@H](CCC(=O)O)NC(=O)[C@@H]1CCCN1C(=O)[C@H](CO)NC(=O)[C@H](C)NC(=O)[C@H](CC(=O)O)NC(=O)[C@H](CCC(=O)O)NC(=O)[C@H](CCC(=O)O)NC(=O)[C@@H]1CCCN1C(=O)[C@H](CCCCNC(=O)COCCOCCNC(=O)COCCOCCNC(=O)CC[C@H](NC(=O)CCCCCCCCCCCCCCCCC(=O)O)C(=O)O)NC(=O)[C@H](CCC(=O)O)NC(=O)[C@@H]1CCCN1C(=O)[C@H](C)NC(=O)CC(C)C)C(=O)N[C@@H](CCC(N)=O)C(=O)N[C@@H](CCCNC(=N)N)C(=O)N[C@@H](Cc1ccc(O)cc1)C(=O)N[C@@H](Cc1ccc(O)cc1)C(=O)N[C@H](C(=O)N[C@@H](CCC(=O)O)C(=O)N[C@@H](CC(C)C)C(=O)N[C@@H](CCCNC(=N)N)C(=O)N[C@@H](Cc1c[nH]cn1)C(=O)N[C@@H](Cc1ccc(O)cc1)C(=O)N[C@@H](Cc1ccc(O)cc1)C(=O)N[C@@H](CC(N)=O)C(=O)N[C@@H](Cc1c[nH]c2ccccc12)C(=O)N[C@@H](CC(C)C)C(=O)N[C@H](C(=O)N[C@@H](CCCNC(=N)N)C(=O)N[C@@H](CCC(N)=O)C(=O)N[C@@H](CCCNC(=N)N)C(=O)N[C@@H](Cc1ccc(O)cc1)C(N)=O)[C@@H](C)O)[C@@H](C)O` [Compound 134, N{alpha-4}-(3-methylbutanoyl)-N{epsilon-7}-[2-(2-{2-[2-(2-{2-[(4S)-4-carboxy-4-(17-carboxyheptadecanamido)butanamido]ethoxy}ethoxy)acetamido]ethoxy}ethoxy)acetamido]-[4A,7K,9E,17I,18Q,22T,23E,28Y,30W,31L]hPYY (4-36)] it is 1.17 nM.
The figure for `CC(C)CC(=O)N[C@@H](C)C(=O)N1CCC[C@H]1C(=O)N[C@@H](CCC(=O)O)C(=O)N[C@@H](CCCCNC(=O)COCCOCCNC(=O)COCCOCCNC(=O)CC[C@H](NC(=O)CCCCCCCCCCCCCCCCC(=O)O)C(=O)O)C(=O)N[C@@H](C)C(=O)N[C@@H](CCC(=O)O)C(=O)N[C@@H](CCC(=O)O)C(=O)N[C@@H](CC(=O)O)C(=O)N[C@@H](C)C(=O)N[C@@H](CCC(=O)O)C(=O)N1CCC[C@H]1C(=O)N[C@@H](CCC(=O)O)C(=O)N[C@@H](CCC(=O)O)C(=O)N[C@@H](CC(C)C)C(=O)N[C@@H](CCC(N)=O)C(=O)N[C@@H](CCCNC(=N)N)C(=O)N[C@@H](Cc1ccc(O)cc1)C(=O)N[C@@H](Cc1ccc(O)cc1)C(=O)N[C@H](C(=O)N[C@@H](CO)C(=O)N[C@@H](CC(C)C)C(=O)N[C@@H](CCCNC(=N)N)C(=O)N[C@@H](Cc1c[nH]cn1)C(=O)N[C@@H](Cc1ccc(O)cc1)C(=O)N[C@@H](Cc1ccc(O)cc1)C(=O)N[C@@H](CC(N)=O)C(=O)N[C@@H](Cc1c[nH]c2ccccc12)C(=O)N[C@@H](CC(C)C)C(=O)N[C@H](C(=O)N[C@@H](CCCNC(=N)N)C(=O)N[C@@H](CCC(N)=O)C(=O)N[C@@H](CCCNC(=N)N)C(=O)N[C@@H](Cc1ccc(O)cc1)C(N)=O)[C@@H](C)O)C(C)C` [Compound 36, N{alpha-4}-(3-methylbutanoyl)-N{epsilon-7}-[2-(2-{2-[2-(2-{2-[(4S)-4-carboxy-4-(17-carboxyheptadecanamido)butanamido]ethoxy}ethoxy)acetamido]ethoxy}ethoxy)acetamido]-[4A,7K,8A,9E,13E,18Q,22V,28Y,30W,31L]hPYY (4-36)] is 10.6 nM.
